Laboratory results as given in US11708348B2, “Protease inhibitors for treatment of coronavirus infections” (The Scripps Research Institute, priority 2021, dated 2023).
Read-outs that look alike come from different tables or passages of the source.

System: SARS-CoV-2 strain USA-WA1/2020
Assay: microbe, parasite or virus in culture
Format: cell-based
Settings: Severe acute respiratory syndrome coronavirus 2, HeLa-ACE2, 24 h, HeLa-ACE2 cells, SARS-CoV-2 infection, 24 h, read-out: EC50, uM (Hela)

| SMILES | EC50 | EC50 (class symbols) |
| --- | --- | --- |
| O=C(N[C@@H](CC1CC1)C(=O)N[C@@H](C[C@@H]1CCNC1=O)C(=O)COC(F)(F)F)c1nnc(Nc2ccccc2)o1 [Compound 461, N-((S)-3-cyclopropyl-1-oxo-1-(((S)-3-oxo-1-((S)-2-oxopyrrolidin-3-yl)-4-(trifluoromethoxy)butan-2-yl)amino)propan-2-yl)-5-(phenylamino)-l,3,4-oxadiazole-2-carboxamide] | 0.2 to 0.5 µM | – |
| CC1(C)[C@@H]2[C@@H](C(=O)N[C@H](C[C@@H]3CCNC3=O)C(=O)COC(F)(F)F)N(C(=O)c3cc(C(F)(F)F)no3)C[C@@H]21 [Compound 492, (1R,2S,5S)-6,6-dimethyl-N-((R)-3-oxo-1-((S)-2-oxopyrrolidin-3-yl)-4-(trifluoromethoxy)butan-2-yl)-3-(3-(trifluoromethyl)-isoxazole-5-carbonyl)-3-azabicyclo[3.1.0]-hexane-2-carboxamide] | 0.05 to 0.2 µM | – |
| Cc1c(F)cccc1NC(=O)C(=O)N[C@@H](CC(C)C)C(=O)N[C@@H](C[C@@H]1CCNC1=O)C(=O)COc1c(F)c(F)cc(F)c1F [Compound 89, N1-(3-fluoro-2-methylphenyl)-N2-((S)-4-methyl-1-oxo-1-(((S)-3-oxo-1-((S)-2-oxopyrrolidin-3-yl)-4-(2,3,5,6-tetrafluorophenoxy)butan-2-yl)amino)pentan-2-yl)oxalamide] | – | < 0.05 µM |
| CC1(C)[C@@H]2[C@@H](C(=O)N[C@@H](C[C@@H]3CCNC3=O)C(=O)COC(F)(F)F)N(C(=O)C(O)c3ccc(F)c(F)c3)C[C@@H]21 (stereo partly drawn) [Compound 401, (1R,2S,5S)-3-(2-(3,4-difluorophenyl)-2-hydroxyacetyl)-6,6-dimethyl-N-((S)-3-oxo-1-((S)-2-oxopyrrolidin-3-yl)-4-(trifluoromethoxy)butan-2-yl)-3-azabicyclo[3.1.0]hexane-2-carboxamide] | – | < 0.05 µM |
| CC(C)(C)[C@H](NC(=O)[C@H]1CCCO1)C(=O)N1C[C@H]2[C@@H]([C@H]1C(=O)N[C@@H](C[C@@H]1CCNC1=O)C(=O)COC(F)(F)F)C2(C)C [Compound 290, (1R,2S,5S)-3-((S)-3,3-dimethyl-2-((R)-tetrahydrofuran-2-carboxamido)-butanoyl)-6,6-dimethyl-N-((S)-3-oxo-1-((S)-2-oxopyrrolidin-3-yl)-4-(trifluoromethoxy)butan-2-yl)-3-azabicyclo-[3.1.0]hexane-2-carboxamide] | – | 0.2 to 0.5 µM |
| CNC(=O)C(=O)N[C@@H](Cc1cccc(F)c1)C(=O)N[C@@H](C[C@@H]1CCNC1=O)C(=O)COC(F)(F)F [Compound 677, N1-((S)-3-(3-fluorophenyl)-1-oxo-1-(((S)-3-oxo-1-((S)-2-oxopyrrolidin-3-yl)-4-(trifluoromethoxy)butan-2-yl)amino)propan-2-yl)-N2-methyloxalamide] | < 0.05 µM | – |
| COc1ccc(C[C@H](NC(=O)c2cc3cc(F)ccc3[nH]2)C(=O)N[C@@H](CC2CCNC2=O)C(=O)COc2c(F)c(F)cc(F)c2F)cc1 (stereo partly drawn) [Compound 19, 5-fluoro-N-((2S)-3-(4-methoxyphenyl)-1-oxo-1-(((2S)-3-oxo-1-(2-oxopyrrolidin-3-yl)-4-(2,3,5,6-tetrafluorophenoxy)butan-2-yl)amino)propan-2-yl)-1H-indole-2-carboxamide] | – | 0.2 to 0.5 µM |
| CC[C@@H](O)C(=O)N[C@@H](CC(C)C)C(=O)N[C@@H](C[C@@H]1CCNC1=O)C(=O)COC(F)(F)F [Compound 369, (S)-2-((R)-2-hydroxybutanamido)-4-methyl-N-((S)-3-oxo-1-((S)-2-oxopyrrolidin-3-yl)-4-(trifluoromethoxy)butan-2-yl)pentanamide] | – | 0.05 to 0.2 µM |
| CC(C)C[C@H](NC(=O)C(=O)NC12CCC(F)(CC1)CC2)C(=O)N[C@@H](C[C@@H]1CCNC1=O)C(=O)COC(F)(F)F [Compound 251, N1-(4-fluorobicyclo-[2.2.2]octan-1-yl)-N2-((S)-4-methyl-1-oxo-1-(((S)-3-oxo-1-((S)-2-oxopyrrolidin-3-yl)-4-(trifluoromethoxy)butan-2-yl)amino)pentan-2-yl)oxalamide] | – | < 0.05 µM |
| Cc1cccc(NC(=O)C(=O)N[C@@H](CC(C)C)C(=O)N[C@@H](C[C@@H]2CCNC2=O)C(=O)COc2c(F)c(F)cc(F)c2F)c1C [Compound 65, N1-(2,3-dimethylphenyl)-N2-((S)-4-methyl-1-oxo-1-(((S)-3-oxo-1-((S)-2-oxopyrrolidin-3-yl)-4-(2,3,5,6-tetrafluorophenoxy)butan-2-yl)amino)pentan-2-yl)oxalamide] | – | < 0.05 µM |
| CC(C)C[C@H](NC(=O)C(=O)NC12CC(C(F)(F)F)(C1)C2)C(=O)N[C@@H](C[C@@H]1CCNC1=O)C(=O)COC(F)(F)F [Compound 596, N1-((S)-4-methyl-1-oxo-1-(((S)-3-oxo-1-((S)-2-oxopyrrolidin-3-yl)-4-(trifluoromethoxy)butan-2-yl)amino)pentan-2-yl)-N2-(3-(trifluoromethyl)bi-cyclo[1.1.1]pentan-1-yl)oxalamide] | < 0.05 µM | – |
| CNC(=O)N[C@H](CC(C)C)C(=O)N1CC2(CC2)C[C@H]1C(=O)N[C@@H](C[C@@H]1CCNC1=O)C(=O)COC(F)(F)F [Compound 435, (S)-5-((methylcarbamoyl)-D-leucyl)-N—((S)-3-oxo-1-((S)-2-oxopyrrolidin-3-yl)-4-(trifluoromethoxy)butan-2-yl)-5-azaspiro[2.4]heptane-6-carboxamide] | 0.2 to 0.5 µM | – |
| Cc1ccccc1NC(=O)C(=O)N[C@@H](CC(C)C)C(=O)N[C@@H](C[C@@H]1CCNC1=O)C(=O)COc1c(F)c(F)cc(F)c1F [Compound 37, N1-((S)-4-methyl-1-oxo-1-(((S)-3-oxo-1-((S)-2-oxopyrrolidin-3-yl)-4-(2,3,5,6-tetrafluoro-phenoxy)butan-2-yl)amino)pentan-2-yl)-N2-(o-tolyl)oxalamide] | – | < 0.05 µM |
| CC(C)C[C@H](NC(=O)C(=O)Nc1ccccc1OC(F)(F)F)C(=O)N[C@@H](C[C@@H]1CCNC1=O)C(=O)COc1c(F)c(F)cc(F)c1F [Compound 113, N1-((S)-4-methyl-1-oxo-1-(((S)-3-oxo-1-((S)-2-oxopyrrolidin-3-yl)-4-(2,3,5,6-tetrafluorophenoxy)butan-2-yl)amino)pentan-2-yl)-N2-(2-(trifluoromethoxy)-phenyl)oxalamide] | – | < 0.05 µM |
| CC(C)(C)c1ccccc1NC(=O)C(=O)N[C@@H](CC1CCCCC1)C(=O)N[C@@H](C[C@@H]1CCNC1=O)C(=O)COc1c(F)c(F)cc(F)c1F [Compound 117, Nl-(2-(tert-butyl)phenyl)-N2-((S)-3-cyclohexyl-1-oxo-1-(((S)-3-oxo-1-((S)-2-oxopyrrolidin-3-yl)-4-(2,3,5,6-tetrafluorophenoxy)butan-2-yl)amino)propan-2-yl)oxalamide] | – | < 0.05 µM |
| CC(C)C[C@H](NC(=O)C(=O)Nc1cccc(F)c1)C(=O)N[C@@H](C[C@@H]1CCNC1=O)C(=O)COc1c(F)c(F)cc(F)c1F [Compound 43, N1-(3-fluorophenyl)-N2-((S)-4-methyl-1-oxo-1-(((S)-3-oxo-1-((S)-2-oxopyrrolidin-3-yl)-4-(2,3,5,6-tetrafluorophenoxy)butan-2-yl)amino)pentan-2-yl)oxalamide] | – | 0.05 to 0.2 µM |
| CC(C)(C)C[C@H](NC(=O)C(=O)Nc1ccccc1C(C)(C)C)C(=O)N[C@@H](C[C@@H]1CCNC1=O)C(=O)COC(F)(F)F [Compound 173, N1-(2-(tert-butyl)phenyl)-N2-((S)-4,4-dimethyl-1-oxo-1-(((S)-3-oxo-1-((S)-2-oxopyrrolidin-3-yl)-4-(trifluoromethoxy)butan-2-yl)amino)pentan-2-yl)oxalamide] | – | < 0.05 µM |
| CC(C)(C)CC(O)C(=O)N1CC2(CC2)C[C@H]1C(=O)N[C@@H](C[C@@H]1CCNC1=O)C(=O)COC(F)(F)F (stereo partly drawn) [Compound 346, (6S)-5-(2-hydroxy-4,4-dimethylpentanoyl)-N-((S)-3-oxo-1-((S)-2-oxopyrrolidin-3-yl)-4-(trifluoromethoxy)butan-2-yl)-5-azaspiro[2.4]heptane-6-carboxamide] | – | < 0.05 µM |
| O=C1NCC[C@H]1C[C@H](NC(=O)[C@@H]1[C@H]2CCC[C@H]2CN1C(=O)C12CC(C(F)(F)F)(CO1)C2)C(=O)COC(F)(F)F [Compound 315, (1S,3aR,6aS)-N-((S)-3-oxo-1-((S)-2-oxopyrrolidin-3-yl)-4-(trifluoromethoxy)butan-2-yl)-2-(4-(trifluoromethyl)-2-oxabicyclo[2.1.1]-hexane-1-carbonyl)-octahydrocyclopenta-[c]pyrrole-1-carboxamide] | – | < 0.05 µM |
| O=C1NCC[C@H]1C[C@H](NC(=O)[C@@H]1CC2(CC2)CN1C(=O)Cc1ccccc1)C(=O)COC(F)(F)F [Compound 648, (S)-N-((S)-3-oxo-1-((S)-2-oxopyrrolidin-3-yl)-4-(trifluoromethoxy)butan-2-yl)-5-(2-phenylacetyl)-5-azaspiro[2.4]heptane-6-carboxamide] | < 0.05 µM | – |
| O=C(NC1CCCCC1)C(=O)N1C[C@@H]2CCC[C@@H]2[C@H]1C(=O)N[C@@H](C[C@@H]1CCNC1=O)C(=O)COC(F)(F)F [Compound 467, (1S,3aR,6aS)-2-(2-(cyclohexylamino)-2-oxoacetyl)-N-((S)-3-oxo-1-((S)-2-oxopyrrolidin-3-yl)-4-(trifluoromethoxy)butan-2-yl)octahydrocyclo-penta[c]pyrrole-1-carboxamide] | 0.5 to 1 µM | – |
| CO[C@@H](CC(C)C)C(=O)N1CC2(CC2)C[C@H]1C(=O)N[C@@H](C[C@@H]1CCNC1=O)C(=O)COC(F)(F)F [Compound 339, (S)-5-((S)-2-methoxy-4-methylpentanoyl)-N-((S)-3-oxo-1-((S)-2-oxopyrrolidin-3-yl)-4-(trifluoromethoxy)butan-2-yl)-5-azaspiro[2.4]heptane-6-carboxamide] | – | 0.05 to 0.2 µM |
| CC1(CC(=O)N2CC3(CC3)C[C@H]2C(=O)N[C@@H](C[C@@H]2CCNC2=O)C(=O)COC(F)(F)F)CCCC1 [Compound 711, (S)-5-(2-(l-methylcyclopentyl)acetyl)-N-((S)-3-oxo-1-((S)-2-oxopyrrolidin-3-yl)-4-(trifluoromethoxy)butan-2-yl)-5-azaspiro[2.4]heptane-6-carboxamide] | < 0.05 µM | – |
